Laboratory results: patent US20100291196A1, “METHOD OF TREATMENT OF AUTISM SPECTRUM DISORDER WITH LIPOSOMAL REDUCED GLUTATHIONE” (priority 2005, published 2010)

Assays:
[1] = 3 grams by oral ingestion; cited from earlier work
[2] = tested on: methionine cycle function; conditions: for improvement with known intermediates and support supplements of the methionine cycle: Case 3, supplements taken together in the month before liposomal glutathione; for blood pressure after initiating the therapies / how the patient felt a few days after initiating the therapies: in vivo
Description: The elevation of histamine is also an indicator of decreased methylation function as it is inactivated by histamine-methyl transferase.
During the month prior to evaluation the MM initiated therapy with SAMe, folate, betaine (trimethyl glycine), N-acetylcysteine and B12 by injection and oral glutathione (neat, not in the form of the invention).

[3] = tested on: children with autism; conditions: cited from earlier work
[4] = tested on: children; assay: Practical experience and clinical observation of children using methylcobalamin by injection; type: in vivo, human
[5] = 800 μg folinic acid and 1000 mg betaine twice daily, 3 months
[6] = after a month of injection therapy
[7] = second intervention, injectable methylcobalamin added to folinic acid and betaine

Compound	improvement with known intermediates and support supplements of the methionine cycle [2]	blood pressure after initiating the therapies [2]	how the patient felt a few days after initiating the therapies [2]	other results
N[C@@H](CCC(=O)N[C@@H](CS)C(=O)NCC(=O)O)C(=O)O [glutathione, gamma-glutamyl-cysteinyl-glycine]	did not improve	170/120	felt worse	plasma glutathione levels [1]: does not elevate
Nc1nc(=O)c2c([nH]1)NCC(CNc1ccc(C(=O)N[C@@H](CCC(=O)O)C(=O)O)cc1)N2C=O (mixture of isomers) [folinic acid]				methionine cycle metabolites versus concentrations in controls [3, 5]: effective in normalizing; total GSH (tGSH) or GSSG concentrations or tGSH:GSSG ratio [3, 5]: improved but did not normalize
cyanocobalamin [B12 (cyanocobalamin)]	did not improve	170/120	felt worse	
C/C1=C2/[N-][C@H]([C@H](CC(N)=O)[C@@]2(C)CCC(=O)NC[C@@H](C)OP(=O)([O-])O[C@H]2[C@@H](O)[C@@H](n3cnc4cc(C)c(C)cc43)O[C@@H]2CO)[C@]2(C)N=C(/C(C)=C3N=C(/C=C4N=C1[C@@H](CCC(N)=O)C\4(C)C)[C@@H](CCC(N)=O)[C@]\3(C)CC(N)=O)[C@@H](CCC(N)=O)[C@]2(C)CC(N)=O.[CH3-].[Co+3] [methylcobalamin]				irritability ([4]; many children, methylcobalamin by injection): substantially increased irritability; SAH ([4]; methylcobalamin by itself, preliminary data): can cause an increase; GSSG [3, 6]: decreased; level of total GSH (tGSH) [3, 6]: increased; tGSH:GSSG ratio (glutathione redox profile) [3, 6]: normalization; speech and cognition ([3]; injection therapy, children with autism): improvement in speech and cognition; concentration of adenosine and GSSG [3, 7]: further decrease; concentrations of methionine, cysteine, tGSH and SAM:SAH and tGSH:GSSG ratios [3, 7]: further increase
C[S+](CC[C@H](N)C(=O)[O-])C[C@H]1O[C@@H](n2cnc3c(N)ncnc32)[C@H](O)[C@@H]1O (stereo partly shown) [SAMe, S-Adenosylmethionine]	did not improve	170/120	felt worse	
Nc1nc2ncc(CNc3ccc(C(=O)N[C@@H](CCC(=O)O)C(=O)O)cc3)nc2c(=O)[nH]1 [folic acid]	did not improve	170/120	felt worse	
C[N+](C)(C)CC(=O)O [betaine, trimethyl glycine]		170/120	felt worse	
CC(=O)N[C@@H](CS)C(=O)O [N-acetylcysteine]	did not improve	170/120	felt worse	
